Laboratory results from patent publication US20210355104A1, “ADENOSINE RECEPTOR BINDING COMPOUNDS” (Nikang Therapeuticsm Inc., priority 2018, published 2021).
Several values for one entry are separate records, joined by “and”; a condition that tells them apart may be missing. Equal entries are not always repeated.

Tests used:
Adenosine A2A receptor [1] = molecular target: T1, Adenosine A2A receptor (Homo sapiens, UniProt P29274); experiment: Adenosine A2A receptor competitive binding assay (Tag-lite HTRF); conditions: Tag-lite adenosine A2A receptor ligand binding
Method in brief: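 Tag-lite HTRF competition: donor-labelled cells expressing human A2A were mixed with serially diluted compounds (DMSO 0.6% in dilutions) and red fluorescent A2A antagonist ligand (60 nM stock). Incubated 2 h at room temperature before HTRF readout.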

Adenosine A2A receptor [2] = molecular target: T1, Adenosine A2A receptor; experiment: cAMP assay in 293A cells stably expressing the adenosine A2A receptor (CGS21680 stimulation, HTRF); format: cell-based; design: expressed in transfected cells; host or cells: 293A cells (Invitrogen, Cat# R705-07) infected with A2A-expressing lentivirus (custom packaged by Biosettia), puromycin selected; conditions: 293A-A2AR cells, 0.1% BSA
[3] = 2 h room temperature, values separated by / are repeat determinations
[4] = 8 nM CGS, values separated by / are repeat determinations, read-out: cAMP (nM) 0.1% BSA, 8 nM CGS
[5] = 1 uM CGS, values separated by / are repeat determinations, read-out: cAMP (nM) 0.1% BSA, 1 uM CGS
[6] = 1 uM CGS, read-out: cAMP (nM) 0.1% BSA, 1 uM CGS
[7] = 8 nM CGS, read-out: cAMP (nM) 0.1% BSA, 8 nM CGS

T1 sequence (P29274 whole entry): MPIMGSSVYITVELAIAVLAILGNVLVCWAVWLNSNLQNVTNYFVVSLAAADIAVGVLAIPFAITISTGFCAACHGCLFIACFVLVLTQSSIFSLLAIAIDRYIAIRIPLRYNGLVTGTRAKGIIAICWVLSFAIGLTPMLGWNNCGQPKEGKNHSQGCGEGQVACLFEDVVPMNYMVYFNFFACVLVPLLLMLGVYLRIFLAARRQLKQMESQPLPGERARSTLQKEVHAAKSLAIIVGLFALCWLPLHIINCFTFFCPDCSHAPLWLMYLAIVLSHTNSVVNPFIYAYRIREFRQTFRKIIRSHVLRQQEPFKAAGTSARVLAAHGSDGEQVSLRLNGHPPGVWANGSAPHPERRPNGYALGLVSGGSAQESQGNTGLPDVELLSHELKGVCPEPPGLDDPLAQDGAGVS

## CCN(CCOc1nc(N)nc(-c2ccc(F)cc2)c1-c1cc(C)nc(C(F)F)c1)C(=O)NC [Example 124, 1-(2-((2-amino-5-(2-(difluoromethyl)-6-methylpyridin-4-yl)-6-(4-fluorophenyl)pyrimidin-4-yl)oxy)ethyl)-1-ethyl-3-methylurea]
Adenosine A2A receptor [1]; [3]
  IC50: 1.7 nM
Adenosine A2A receptor [2]; [4]
  IC50: 1.1 nM and 0.5 nM
Adenosine A2A receptor [2]; [5]
  IC50: 535 nM

## Cc1cc(-c2c(NCc3cccc(CO[C@H]4CCOC4)n3)nc(N)nc2-c2ccccc2)cc(C(F)(F)F)n1 [Example 4, (S)-5-(2-methyl-6-(trifluoromethyl)pyridin-4-yl)-6-phenyl-N4-((6-(((tetrahydrofuran-3-yl)oxy)methyl)pyridin-2-yl)methyl)pyrimidine-2,4-diamine]
Adenosine A2A receptor [1]; [3]
  IC50: 139 nM
Adenosine A2A receptor [2]; [4]
  IC50: 482 nM and 288 nM
Adenosine A2A receptor [2]; [5]
  IC50: 23100 nM

## Cc1cc(-c2c(OCCN(C)c3cnccn3)nc(N)nc2-c2ccc(F)cc2)cc(C(F)F)n1 [Example 152, 5-(2-(difluoromethyl)-6-methylpyridin-4-yl)-4-(4-fluorophenyl)-6-(2-(methyl(pyrazin-2-yl)amino)ethoxy)pyrimidin-2-amine]
Adenosine A2A receptor [1]; [3]
  IC50: 5.1 nM
Adenosine A2A receptor [2]; [5]
  IC50: 351 nM

## COC(=O)NCc1nc(N)nc(-c2ccc(F)cc2)c1-c1cc(C)nc(C(F)F)c1 [Example 103, methyl((2-amino-5-(2-(difluoromethyl)-6-methylpyridin-4-yl)-6-(4-fluorophenyl)pyrimidin-4-yl)methyl)carbamate]
Adenosine A2A receptor [1]; [3]
  IC50: 47 nM
Adenosine A2A receptor [2]; [4]
  IC50: 11 nM

## Cc1cc(-c2c(OCCCN3CCN(c4ccc(F)cc4F)CC3)nc(N)nc2-c2ccccc2)cc(C(F)(F)F)n1 [Example 6, 4-(3-(4-(2,4-difluorophenyl)piperazin-1-yl)propoxy)-5-(2-methyl-6-(trifluoromethyl)pyridin-4-yl)-6-phenylpyrimidin-2-amine]
Adenosine A2A receptor [1]; [3]
  IC50: 74.3 nM
Adenosine A2A receptor [2]; [4]
  IC50: 183 nM

## Cc1cc(-c2c(OCc3ncc(S(C)(=O)=O)n3C(C)C)nc(N)nc2-c2ccc(F)cc2)cc(C(F)F)n1 [Example 192, 5-(2-(difluoromethyl)-6-methylpyridin-4-yl)-4-(4-fluorophenyl)-6-((1-isopropyl-5-(methylsulfonyl)-1H-imidazol-2-yl)methoxy)pyrimidin-2-amine]
Adenosine A2A receptor [1]; [3]
  IC50: 26 nM
Adenosine A2A receptor [2]; [4]
  IC50: 9.7 nM

## COC(=O)N1CCC(COc2nc(N)nc(-c3ccc(F)cc3)c2-c2cc(C)nc(C(F)F)c2)CC1 [Example 106, methyl 4-(((2-amino-5-(2-(difluoromethyl)-6-methylpyridin-4-yl)-6-(4-fluorophenyl)pyrimidin-4-yl)oxy)methyl)piperidine-1-carboxylate]
Adenosine A2A receptor [1]; [3]
  IC50: 38 nM
Adenosine A2A receptor [2]; [4]
  IC50: 43 nM

## Cc1cc(-c2c(OCC(=O)NC(C)C)nc(N)nc2-c2ccc(F)cc2)cc(C(F)F)n1 [Example 41, 2-((2-amino-5-(2-(difluoromethyl)-6-methylpyridin-4-yl)-6-(4-fluorophenyl)pyrimidin-4-yl)oxy)-N-isopropylacetamide]
Adenosine A2A receptor [1]; [3]
  IC50: 6.7 nM
Adenosine A2A receptor [2]; [4]
  IC50: 4.1 nM

## Cc1cc(-c2c(OCC(=O)N(C)c3ccccc3)nc(N)nc2-c2ccc(F)cc2)cc(C(F)F)n1 [Example 98, 2-((2-amino-5-(2-(difluoromethyl)-6-methylpyridin-4-yl)-6-(4-fluorophenyl)pyrimidin-4-yl)oxy)-N-methyl-N-phenylacetamide]
Adenosine A2A receptor [1]; [3]
  IC50: 5.9 nM
Adenosine A2A receptor [2]; [4]
  IC50: 1.2 nM

## Cc1cc(-c2c(OC[C@H](O)CO)nc(N)nc2-c2ccc(F)cc2)cc(C(F)F)n1 [Example 86, (R)-3-((2-amino-5-(2-(difluoromethyl)-6-methylpyridin-4-yl)-6-(4-fluorophenyl)pyrimidin-4-yl)oxy)propane-1,2-diol]
Adenosine A2A receptor [1]; [3]
  IC50: 13 nM
Adenosine A2A receptor [2]; [4]
  IC50: 2 nM and 9.1 nM and 10.5 nM
Adenosine A2A receptor [2]; [5]
  IC50: 1070 nM

## COC(=O)NCCOc1nc(N)nc(-c2ccc(F)cc2)c1-c1cc(C)nc(C(F)F)c1 [Example 116, methyl(2-((2-amino-5-(2-(difluoromethyl)-6-methylpyridin-4-yl)-6-(4-fluorophenyl)pyrimidin-4-yl)oxy)ethyl)carbamate]
Adenosine A2A receptor [1]; [3]
  IC50: 7.3 nM
Adenosine A2A receptor [2]; [4]
  IC50: 4.7 nM and 3.2 nM

## CCn1nnnc1COc1nc(N)nc(-c2ccc(F)cc2)c1-c1cc(C)nc(C(F)F)c1 [Example 295, 5-(2-(difluoromethyl)-6-methylpyridin-4-yl)-4-((1-ethyl-1H-tetrazol-5-yl)methoxy)-6-(4-fluorophenyl)pyrimidin-2-amine]
Adenosine A2A receptor [1]; HTRF
  IC50: 7.4 nM
Adenosine A2A receptor [2]; [6]
  IC50: 175 nM and 69 nM and 201 nM

## Cc1cc(-c2c(OCC3(CO)CCOCC3)nc(N)nc2-c2ccc(F)cc2)cc(C(F)F)n1 [Example 125, (4-(((2-amino-5-(2-(difluoromethyl)-6-methylpyridin-4-yl)-6-(4-fluorophenyl)pyrimidin-4-yl)oxy)methyl)tetrahydro-2H-pyran-4-yl)methanol]
Adenosine A2A receptor [1]; [3]
  IC50: 18.1 nM
Adenosine A2A receptor [2]; [4]
  IC50: 8.7 nM
Adenosine A2A receptor [2]; [5]
  IC50: 1890 nM

## Cc1cc(-c2c(OCC(=O)N(CCO)CCO)nc(N)nc2-c2ccc(F)cc2)cc(C(F)F)n1 [Example 88]
Adenosine A2A receptor [1]; [3]
  IC50: 22 nM
Adenosine A2A receptor [2]; [4]
  IC50: 8.3 nM
Adenosine A2A receptor [2]; [5]
  IC50: 4260 nM

## Cc1cc(-c2c(OCc3nc(S(C)(=O)=O)cn3C(C)C)nc(N)nc2-c2ccc(F)cc2)cc(C(F)F)n1 [Example 211, 5-(2-(difluoromethyl)-6-methylpyridin-4-yl)-4-(4-fluorophenyl)-6-((1-isopropyl-4-(methylsulfonyl)-1H-imidazol-2-yl)methoxy)pyrimidin-2-amine]
Adenosine A2A receptor [1]; HTRF
  IC50: 47 nM
Adenosine A2A receptor [2]; [7]
  IC50: 7.3 nM

## Cc1cc(-c2c(OCCN(C)c3cc(OCCO)ccn3)nc(N)nc2-c2ccc(F)cc2)cc(C(F)F)n1 [Example 155, 2-((2-((2-((2-amino-5-(2-(difluoromethyl)-6-methylpyridin-4-yl)-6-(4-fluorophenyl)pyrimidin-4-yl)oxy)ethyl)(methyl)amino)pyridin-4-yl)oxy)ethan-1-ol]
Adenosine A2A receptor [1]; [3]
  IC50: 24 nM
Adenosine A2A receptor [2]; [4]
  IC50: 5.4 nM

## Cc1cc(-c2c(OCc3nccn3C3CC(O)C3)nc(N)nc2-c2ccc(F)cc2)cc(C(F)F)n1 (centres unmarked) [Example 210, 3-(2-(((2-amino-5-(2-(difluoromethyl)-6-methylpyridin-4-yl)-6-(4-fluorophenyl)pyrimidin-4-yl)oxy)methyl)-1H-imidazol-1-yl)cyclobutan-1-ol]
Adenosine A2A receptor [1]; HTRF
  IC50: 3.4 nM and 5.4 nM
Adenosine A2A receptor [2]; [7]
  IC50: 3.7 nM and 5.4 nM
Adenosine A2A receptor [2]; [6]
  IC50: 2250 nM

## Cc1cc(-c2c(CNC(=O)N(C)C)nc(N)nc2-c2ccc(F)cc2)cc(C(F)F)n1 [Example 78, 3-((2-amino-5-(2-(difluoromethyl)-6-methylpyridin-4-yl)-6-(4-fluorophenyl)pyrimidin-4-yl)methyl)-1,1-dimethylurea]
Adenosine A2A receptor [1]; [3]
  IC50: 11 nM
Adenosine A2A receptor [2]; [4]
  IC50: 51 nM

## CCNCCOc1nc(N)nc(-c2ccc(F)cc2)c1-c1cc(C)nc(C(F)F)c1 [Example 65, 5-(2-(difluoromethyl)-6-methylpyridin-4-yl)-4-(2-(ethylamino)ethoxy)-6-(4-fluorophenyl)pyrimidin-2-amine]
Adenosine A2A receptor [1]; [3]
  IC50: 42 nM
Adenosine A2A receptor [2]; [4]
  IC50: 1.6 nM
Adenosine A2A receptor [2]; [5]
  IC50: 1010 nM

## Cc1cc(-c2c(OCc3cc(C(C)(C)O)ccn3)nc(N)nc2-c2ccc(F)cc2)cc(C(F)F)n1 [Example 224, 2-(2-(((2-amino-5-(2-(difluoromethyl)-6-methylpyridin-4-yl)-6-(4-fluorophenyl)pyrimidin-4-yl)oxy)methyl)pyridin-4-yl)propan-2-ol]
Adenosine A2A receptor [1]; HTRF
  IC50: 9.5 nM
Adenosine A2A receptor [2]; [6]
  IC50: 1320 nM

## CCOC(=O)NCCOc1nc(N)nc(-c2ccc(F)cc2)c1-c1cc(C)nc(C(F)F)c1 [Example 54, ethyl(2-((2-amino-5-(2-(difluoromethyl)-6-methylpyridin-4-yl)-6-(4-fluorophenyl)pyrimidin-4-yl)oxy)ethyl)carbamate]
Adenosine A2A receptor [1]; [3]
  IC50: 2.1 nM and 10 nM
Adenosine A2A receptor [2]; [4]
  IC50: 0.22 nM and 1.45 nM

## COCCOc1ccc(N2CCN(CCOc3nc(N)nc(-c4ccc(F)cc4)c3-c3cc(C)nc(C(F)F)c3)CC2)cc1 [Example 53, 5-(2-Difluoromethyl-6-methyl-pyridin-4-yl)-4-(4-fluoro-phenyl)-6-(2-{4-[4-(2-methoxy-ethoxy)-phenyl]-piperazin-1-yl}-ethoxy)-pyrimidin-2-ylamine]
Adenosine A2A receptor [1]; [3]
  IC50: 13 nM
Adenosine A2A receptor [2]; [4]
  IC50: 0.67 nM

## Cc1cc(-c2c(OCc3nn(C)cc3C(C)C)nc(N)nc2-c2ccc(F)cc2)cc(C(F)F)n1 [Example 184, 5-(2-(difluoromethyl)-6-methylpyridin-4-yl)-4-(4-fluorophenyl)-6-((4-isopropyl-1-methyl-1H-pyrazol-3-yl)methoxy)pyrimidin-2-amine]
Adenosine A2A receptor [1]; [3]
  IC50: 33 nM
Adenosine A2A receptor [2]; [4]
  IC50: 8.8 nM

## Cc1cc(-c2c(OCC3CCC(C)(O)CC3)nc(N)nc2-c2ccc(F)cc2)cc(C(F)F)n1 (centres unmarked) [Example 197, 4-(((2-amino-5-(2-(difluoromethyl)-6-methylpyridin-4-yl)-6-(4-fluorophenyl)pyrimidin-4-yl)oxy)methyl)-1-methylcyclohexan-1-ol]
Adenosine A2A receptor [1]; HTRF
  IC50: 19.1 nM
Adenosine A2A receptor [2]; [7]
  IC50: 6.3 nM

## Cc1cc(-c2c(OCc3ccc(C(C)(C)O)cn3)nc(N)nc2-c2ccc(F)cc2)cc(C(F)F)n1 [Example 217, 2-(6-(((2-amino-5-(2-(difluoromethyl)-6-methylpyridin-4-yl)-6-(4-fluorophenyl)pyrimidin-4-yl)oxy)methyl)pyridin-3-yl)propan-2-ol]
Adenosine A2A receptor [1]; HTRF
  IC50: 21 nM
Adenosine A2A receptor [2]; [6]
  IC50: 6500 nM

## Cc1cc(-c2c(OCC3COCCO3)nc(N)nc2-c2ccc(F)cc2)cc(C(F)F)n1 (centres unmarked) [Example 114]
Adenosine A2A receptor [1]; [3]
  IC50: 7.7 nM
Adenosine A2A receptor [2]; [4]
  IC50: 6.2 nM and 4.2 nM
